ChEMBL document CHEMBL1155132, “Synthesis and structure-activity relationship of 1H-indole-3-carboxylic acid pyridine-3-ylamides: a novel series of 5-HT2C receptor antagonists” (Bioorg Med Chem Lett, 2008)

Assays:
[1] = target: T1, 5-hydroxytryptamine receptor 2C (Homo sapiens, UniProt P28335); assay: Displacement of [3H]mesulergine at human cloned 5HT2C receptor expressed in CHOK1 cell; type: cell-based, CHO-K1
T1 sequence (P28335 whole entry): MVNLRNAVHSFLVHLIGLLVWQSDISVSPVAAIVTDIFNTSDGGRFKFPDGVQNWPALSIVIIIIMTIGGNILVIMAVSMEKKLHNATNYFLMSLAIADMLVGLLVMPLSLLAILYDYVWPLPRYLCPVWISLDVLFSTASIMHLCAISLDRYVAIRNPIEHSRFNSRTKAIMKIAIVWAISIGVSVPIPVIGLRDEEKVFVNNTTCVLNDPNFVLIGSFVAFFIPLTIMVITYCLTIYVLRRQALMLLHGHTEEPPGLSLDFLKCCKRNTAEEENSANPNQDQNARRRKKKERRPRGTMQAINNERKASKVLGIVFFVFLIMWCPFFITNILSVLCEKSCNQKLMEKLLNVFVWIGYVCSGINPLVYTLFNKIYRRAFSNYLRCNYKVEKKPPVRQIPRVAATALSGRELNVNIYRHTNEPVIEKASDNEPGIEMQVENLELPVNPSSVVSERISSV

[2] = target: 5-hydroxytryptamine receptor 7 (Homo sapiens, UniProt P34969); assay: Displacement of [3H]LSD from human cloned 5HT7 receptor
[3] = target: 5-hydroxytryptamine receptor 2A (Homo sapiens, UniProt P28223); assay: Displacement of [3H]ketanserin from human cloned 5HT2A receptor
[4] = target: 5-hydroxytryptamine receptor 6 (Homo sapiens, UniProt P50406); assay: Displacement of [3H]LSD from human cloned 5HT6 receptor
D(4) dopamine receptor = target: T2, D(4) dopamine receptor (Homo sapiens, UniProt P21917); assay: Displacement of [3H]spiperone from human cloned dopamine D4 receptor
T2 sequence (P21917 whole entry): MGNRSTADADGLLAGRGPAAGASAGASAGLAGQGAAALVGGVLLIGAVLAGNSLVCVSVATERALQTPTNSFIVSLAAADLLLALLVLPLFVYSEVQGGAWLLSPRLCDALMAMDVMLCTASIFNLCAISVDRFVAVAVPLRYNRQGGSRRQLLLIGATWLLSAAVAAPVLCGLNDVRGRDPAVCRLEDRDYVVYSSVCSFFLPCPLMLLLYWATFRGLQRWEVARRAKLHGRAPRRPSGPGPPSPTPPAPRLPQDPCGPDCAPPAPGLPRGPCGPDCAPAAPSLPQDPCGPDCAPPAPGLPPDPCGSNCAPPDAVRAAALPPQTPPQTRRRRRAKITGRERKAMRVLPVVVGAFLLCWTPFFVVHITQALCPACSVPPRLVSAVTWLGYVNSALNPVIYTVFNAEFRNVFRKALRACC

D(3) dopamine receptor = D(3) dopamine receptor (Homo sapiens, UniProt P35462); assay: Displacement of [3H]spiperone from human cloned dopamine D3 receptor
D(2) dopamine receptor = D(2) dopamine receptor (Homo sapiens, UniProt P14416); assay: Displacement of [3H]spiperone from human cloned dopamine D2 receptor
[5] = target: T3, 5-hydroxytryptamine receptor 1A (Homo sapiens, UniProt P08908); assay: Displacement of [3H]8-OH-DPAT from human cloned 5HT1A receptor
T3 sequence (P08908 whole entry): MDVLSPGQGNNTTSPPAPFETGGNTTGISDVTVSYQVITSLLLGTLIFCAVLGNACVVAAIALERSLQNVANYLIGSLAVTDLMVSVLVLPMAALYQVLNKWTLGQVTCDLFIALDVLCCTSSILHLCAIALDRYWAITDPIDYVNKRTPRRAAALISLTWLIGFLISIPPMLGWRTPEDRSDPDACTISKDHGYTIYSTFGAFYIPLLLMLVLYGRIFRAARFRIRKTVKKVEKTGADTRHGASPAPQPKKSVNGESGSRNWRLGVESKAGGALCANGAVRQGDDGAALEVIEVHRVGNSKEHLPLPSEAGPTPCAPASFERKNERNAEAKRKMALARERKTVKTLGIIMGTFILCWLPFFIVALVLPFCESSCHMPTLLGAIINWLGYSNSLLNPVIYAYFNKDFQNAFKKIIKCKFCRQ

5-hydroxytryptamine receptor 7, sequence (P34969 whole entry): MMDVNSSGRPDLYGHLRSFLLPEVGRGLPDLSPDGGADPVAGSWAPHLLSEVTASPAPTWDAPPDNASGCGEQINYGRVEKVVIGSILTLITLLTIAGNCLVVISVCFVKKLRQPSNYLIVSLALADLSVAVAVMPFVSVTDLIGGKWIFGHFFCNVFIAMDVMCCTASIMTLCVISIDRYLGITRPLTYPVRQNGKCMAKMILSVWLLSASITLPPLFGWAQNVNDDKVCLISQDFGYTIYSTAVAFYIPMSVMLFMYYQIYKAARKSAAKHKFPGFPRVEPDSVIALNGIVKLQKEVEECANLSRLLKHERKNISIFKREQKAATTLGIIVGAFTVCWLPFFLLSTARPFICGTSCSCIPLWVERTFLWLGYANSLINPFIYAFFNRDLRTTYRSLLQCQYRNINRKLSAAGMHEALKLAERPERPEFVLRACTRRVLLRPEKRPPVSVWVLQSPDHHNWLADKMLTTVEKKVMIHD
5-hydroxytryptamine receptor 6, sequence (P50406 whole entry): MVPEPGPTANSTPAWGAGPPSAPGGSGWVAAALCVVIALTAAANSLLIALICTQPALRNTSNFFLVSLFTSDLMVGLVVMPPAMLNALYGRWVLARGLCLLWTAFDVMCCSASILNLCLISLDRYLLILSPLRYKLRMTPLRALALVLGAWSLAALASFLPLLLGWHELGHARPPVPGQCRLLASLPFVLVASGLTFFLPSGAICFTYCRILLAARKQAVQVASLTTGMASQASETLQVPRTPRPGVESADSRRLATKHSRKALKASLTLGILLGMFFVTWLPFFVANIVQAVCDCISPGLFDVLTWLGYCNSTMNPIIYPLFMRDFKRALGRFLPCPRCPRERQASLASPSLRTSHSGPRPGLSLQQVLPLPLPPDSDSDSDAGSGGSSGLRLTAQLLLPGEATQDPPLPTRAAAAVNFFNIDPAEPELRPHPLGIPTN
D(2) dopamine receptor, sequence (P14416 whole entry): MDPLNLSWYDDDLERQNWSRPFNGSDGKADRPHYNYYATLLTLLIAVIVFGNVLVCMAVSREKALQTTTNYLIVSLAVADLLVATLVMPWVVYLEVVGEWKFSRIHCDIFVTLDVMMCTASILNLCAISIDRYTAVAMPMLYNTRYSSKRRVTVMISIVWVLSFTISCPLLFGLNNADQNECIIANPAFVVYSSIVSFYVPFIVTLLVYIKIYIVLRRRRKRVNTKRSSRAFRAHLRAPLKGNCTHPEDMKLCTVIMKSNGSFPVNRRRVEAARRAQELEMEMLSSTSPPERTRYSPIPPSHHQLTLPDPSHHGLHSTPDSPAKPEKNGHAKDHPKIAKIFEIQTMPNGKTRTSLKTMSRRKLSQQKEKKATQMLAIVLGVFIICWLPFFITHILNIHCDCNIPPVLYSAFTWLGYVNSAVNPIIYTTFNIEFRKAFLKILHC
D(3) dopamine receptor, sequence (P35462 whole entry): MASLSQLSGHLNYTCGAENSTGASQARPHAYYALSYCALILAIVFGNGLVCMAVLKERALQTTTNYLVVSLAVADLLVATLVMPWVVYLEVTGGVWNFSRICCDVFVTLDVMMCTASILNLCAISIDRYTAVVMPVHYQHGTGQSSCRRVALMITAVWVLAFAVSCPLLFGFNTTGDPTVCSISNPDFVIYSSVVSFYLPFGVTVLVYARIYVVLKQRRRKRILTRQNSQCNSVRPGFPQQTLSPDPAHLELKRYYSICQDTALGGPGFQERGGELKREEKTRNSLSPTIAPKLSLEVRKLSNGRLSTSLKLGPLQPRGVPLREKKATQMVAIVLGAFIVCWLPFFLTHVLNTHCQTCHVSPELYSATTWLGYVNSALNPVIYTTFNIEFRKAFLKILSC
5-hydroxytryptamine receptor 2A, sequence (P28223 whole entry): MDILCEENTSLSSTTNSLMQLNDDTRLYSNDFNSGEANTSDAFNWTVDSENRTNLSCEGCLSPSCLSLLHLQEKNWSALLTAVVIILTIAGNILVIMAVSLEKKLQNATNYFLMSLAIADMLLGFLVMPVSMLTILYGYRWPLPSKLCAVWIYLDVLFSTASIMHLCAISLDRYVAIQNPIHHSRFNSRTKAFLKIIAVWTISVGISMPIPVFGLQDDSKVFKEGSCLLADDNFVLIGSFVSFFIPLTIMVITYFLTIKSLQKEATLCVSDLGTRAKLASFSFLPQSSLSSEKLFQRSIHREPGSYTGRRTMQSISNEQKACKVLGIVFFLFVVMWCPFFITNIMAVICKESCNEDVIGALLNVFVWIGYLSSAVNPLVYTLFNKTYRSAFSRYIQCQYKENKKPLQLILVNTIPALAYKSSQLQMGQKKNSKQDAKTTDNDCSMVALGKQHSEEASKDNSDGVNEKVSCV

Row | Compound | IC50 [1] | IC50 (D(4) dopamine receptor) | further results
1 | Cc1ncccc1Oc1ccc(NC(=O)c2cc3ccccc3[nH]2)cn1 | 0.059 µM |  | 
2 | O=C(Nc1ccc(OCc2ccccn2)nc1)c1c[nH]c2ccccc12 | 0.006 µM |  | 
3 | O=C(Nc1ccc(Oc2cccnc2)nc1)c1c[nH]c2ccccc12 |  | > 10 µM | IC50 [2]: > 10 µM; IC50 [3]: > 1 µM; IC50 [4]: > 10 µM; IC50 (D(3) dopamine receptor): > 10 µM; IC50 (D(2) dopamine receptor): > 10 µM; IC50 [5]: > 10 µM
4 | O=C(Nc1ccc(Oc2cccnc2Cl)nc1)c1c[nH]c2ccccc12 |  | > 10 µM | 
5 | O=C(Nc1cccnc1)c1c[nH]c2ccccc12 | > 10 µM |  | 
6 | Cc1cc2c(cc1C(F)(F)F)N(C(=O)Nc1ccc(Oc3cccnc3C)nc1)CC2 [SB-243213] |  | > 1 µM | 
